Assay results: US20170131285A1, “METHODS AND COMPOSITIONS FOR DIAGNOSING, MONITORING AND TREATING CANCER” (INSERM (Institut National de la Sante et de la Recherche …, priority 2014, published 2017)
Where no end group is shown, it is not given here.

Columns and labels:
B16F10 tumors = experiment: B16F10 melanoma tumor model in C57/BL6 mice; format: in vivo, mouse
Protocol: FIG. 5: A8 anti-tumor effect in mice is associated to MDSC and an immune anti-tumor response. (A) Mice were sc injected with B16F10 cells (5×10^4). On day 4, when tumor size was about 0.9 mm^3, animals were treated every two days until the end of the experiment with A0 or A8 (3 mg/kg dissolved in PBS, i.p injection). On day 5, half the animals were treated with cisplatin as a single dose (CDDP, i.p injection, 5 mg/kg). At day 18, the percentage of Gr1^+ CD11b^+ cells in the spleen collected from the different groups of mice was analyzed by flow cytometry (6 animals per group). As a MDCS negative control (Ctl) we used animals with no tumor cells injected. Right panels, a representative immunoblot of pSTAT3 in the MDSC (Gr1^+ CD11b^+ cells) isolated from the spleen of control animals (A0/PBS) or A8 and CDDP-treated animals (A8/CDDP). 14-3-3 is used as a loading control. (B) Analysis of tumor growth in the animals described above. Tumor size was measured every two days (6 animals per group). The white symbols represent the tumors from animals treated with cisplatin. (C) HSP70-exosomes isolated from B16F10 cells treated or not with cisplatin (CDDP, 25 μM) were determined by flow cytometry. Data represent the percentage of MFI+/−SD (n=3); *, p<0.05. (D) Association curves of HSP70-exosomes present in tumor-bearing mice sera treated or not with cisplatin (5 mg/kg). For the biolayer interferometry, biotinylated A8 was immobilized on streptavidin sensor tips. Curves represent mean values of triplicate measurements for each concentration (for each curve, the blood of 5 mice per group was pooled).
Exponentially growing B16F10 were harvested and resuspended in an RPMI medium without FBS. In vivo studies were performed in wild-type C57/BL6 mice (Charles River). B16F10 cells (5·10^4) were injected s.c. into the right flank Tumor volumes were evaluated every 2 days. Mice were treated with a control peptide aptamer A0 (3 mg/kg) or the HSP70 aptamer A8 (3 mg/kg) and half mice were treated with cisplatin (CDDP, […]). The animals were treated according to the guidelines of the Ministère de la Recherche et de la Technologie, France. All experiments were approved by the Comité d'Ethique de l'Université de Bourgogne.
MDSC cell isolation and analysis: Single-cell suspensions were prepared from spleens, and red cells were removed using ammonium chloride lysis buffer. Gr-1+ cells were isolated from spleens of different group of tumor-bearing mice or naive mice by labeling the cells with PE Cy7 Ab to Gr-1, then using magnetic PE Cy7 beads and LS MACS columns (Miltenyi Biotec). For extracellular staining of immune markers, single-cell suspensions were prepared. We incubated 1·10^6 freshly prepared cells with fluorochrome-coupled CD11b antibody (eBioscience). All events were acquired by a BD Bioscience LSR-II device and analyzed with FlowJo (Tree Star).
Animals were killed 18 days after cell injection. The site of tumor cell injection was resected and snap-frozen in liquid nitrogen. An immunohistochemical study of tumor-infiltrating inflammatory cells was performed on acetone-fixed 5 μm cryostat sections.
Next, we tested whether A8 was also able to block the immunosuppressive effect of MDSC in an in vivo cancer model. We performed subcutaneous injection at day 0 of B16F10 cells or media as a control in C57/BL6 mice. When tumor size reached about 0.9 mm^3 ([…]), mice were treated i.p. with a control peptide aptamer (A0) or A8 every two days until the end of the experiment. When indicated, half of the animals received cisplatin (CDDP, […], i.p.) as a single dose. Tumor growth was measured every two days. After 18 days, we analyzed the percentage of MDSC present in mice spleen (6 animals per group) by FACS using the specific markers Gr1^+ and CD11b^+ (FIG. 5A). […]

EL4 tumors = experiment: EL4 lymphoma tumor model in C57BL6 mice; format: in vivo, mouse
Protocol: FIG. 10: A8 anti-tumor effect in mice is associated with an increased anti-tumor immune response. Mice were s.c. injected with EL4 cells (7·10^5). On day 5, animals were treated every two days until the end of the experiment with either A0 (control aptamer) or A8 (3 mg/kg, i.p. injection). On day 6, half the animals were i.p. treated with a single dose of 5-fluorouracil (5FU, 25 mg/kg). A) At day 10, the percentage of MDSC (Gr1^+ CD11b^+) cells in the spleen collected from the different groups of mice was analyzed by flow cytometry (6 animals per group). As a negative control (Ctl) we used animals with no tumors. B) Tumor size was measured every two days (6 animals per group; n=3). The open symbols represent animals treated with 5FU. T test: *, p<0.05, **, p<0.01, (n=3). C) EL4 tumor sections were performed 10 days after injection of A8. Dendritic cells and macrophages were labeled using, CD11c and F4/80 antibodies. A representative image is shown (n=6 per group). Labeled cells were counted from 300 cells chosen randomly in different microscopic fields.
Animals were killed 15 or 18 days after cell injection. The site of tumor cell injection was resected and snap-frozen in liquid nitrogen. An immunohistochemical study of tumor-infiltrating inflammatory cells was performed on acetone-fixed 5 μm cryostat sections. Tumoral biopsies were blocked in PBS with 3% of BSA (10 min, RT) anti-CD11c (1/50, monoclonal, BD Pharmingen), anti-CD3 (1/50, monoclonal, BD Pharmingen), anti-F4/80 (1/100, monoclonal, BD Pharmingen), diluted in PBS with 1% of BSA, was added on slides and incubated 45 minutes at RT, after washing with PBS. Nuclei were colored with mounting medium: Prolong Gold with Dapi (Molecular Probe). […] Images were acquired using an AxioCam MRm monochrome CCD camera (Carl Zeiss GmbH). Six pictures were taken in random fields for each labeling, and analyzed using image J software.
To confirm A8 in vivo results shown in FIG. 5, the inventors have used another syngeneic model: lymphoma EL4 tumors developed in C57BL6 mice. […]

SPWPRPTY [Aptamer A8, SPWPRPTY]
intra-tumor infiltration of immune cells (CD3+, CD11c+, CD11b+, F4/80+) (B16F10 tumors; B16F10 model): intra-tumor infiltration of immune cells
anti-cancer properties of cisplatin (B16F10 tumors; B16F10 model, A8 added to cisplatin): strong increase
percentage of MDSC (Gr1+ CD11b+) in spleen (B16F10 tumors; B16F10 tumor-bearing C57/BL6 mice, day 18, A0 or A8 3 mg/kg i.p. every two days, cisplatin single i.p. dose, 6 animals per group): 6+/−0.7%
activity of spleen MDSC measured by phosphorylated STAT3 (B16F10 tumors; after cisplatin treatment, immunoblot of Gr1+ CD11b+ cells): affected their activity
tumor growth / tumor progression (B16F10 tumors; tumor-bearing mice): inhibits tumor progression
tumor infiltration by immune cells (EL4 tumors): strongly infiltrated by different immune cells
number of MDSC in the spleen (EL4 tumors; A8 3 mg/kg i.p. every two days, day 10): a decrease in the number of MDSC in the spleen
size of the tumors (EL4 tumors; A8 3 mg/kg i.p., with or without single dose 5FU 25 mg/kg i.p.): a decrease in the size of the tumors mainly when added in combination to 5FU
